Data set [1] concerns the target T1, human adult muscle nicotinic acetylcholine receptor αβεδ (Homo sapiens, UniProt P02708+P11230+Q04844+Q07001).
T1 construct: expressed in transfected cells; host or cells: Xenopus laevis oocytes injected with cRNA (cDNAs in pRBG4, gifts of A. G. Engel and F. Grassi)
Put plainly: ACh-evoked currents at adult muscle nAChR in Xenopus oocytes, two-electrode voltage clamp. Type of data set: cell-based. Particulars: read-out: IC50 of block of ACh-evoked currents. From the text:
The deviations are represented by the standard error of the mean (SEM).
In general terms: In two-electrode clamp one electrode senses voltage and the other passes current.

Details of data set [2]: method as in Dieterich et al., 1984. The settings on record: humans; oral 2 × 260 mg quinine sulfate; ref Dieterich et al., 1984; cited from earlier work.
Data set [3] has as its system neuronal rat α9α10 nAChRs. Set-up: method as in Ballestero et al., 2005. The settings on record: ref Ballestero et al., 2005; cited from earlier work.
Data set [4] deals with human homomeric 5HT3A-receptors. Set-up: method as in Thompson and Lummis, 2008. The settings on record: ref Thompson and Lummis, 2008; cited from earlier work.
The target of data set [5] is human heteromeric 5HT3AB-receptors. Set-up: method as in Thompson and Lummis, 2008. The settings on record: ref Thompson and Lummis, 2008; cited from earlier work.
The next data set has as its target human GABA(A)-receptors. Set-up: method as in Thompson and Lummis, 2008. The settings on record: ref Thompson and Lummis, 2008; cited from earlier work.
In data set [6] the test system is recombinant muscle receptor expressed in HEK293 cells. The settings on record: concentrations up to 30 μM; ref Sieb et al., 1996; cited from earlier work.

Where a name gives a salt, the structure may show the parent alone.

T1 sequence (P02708 21-457): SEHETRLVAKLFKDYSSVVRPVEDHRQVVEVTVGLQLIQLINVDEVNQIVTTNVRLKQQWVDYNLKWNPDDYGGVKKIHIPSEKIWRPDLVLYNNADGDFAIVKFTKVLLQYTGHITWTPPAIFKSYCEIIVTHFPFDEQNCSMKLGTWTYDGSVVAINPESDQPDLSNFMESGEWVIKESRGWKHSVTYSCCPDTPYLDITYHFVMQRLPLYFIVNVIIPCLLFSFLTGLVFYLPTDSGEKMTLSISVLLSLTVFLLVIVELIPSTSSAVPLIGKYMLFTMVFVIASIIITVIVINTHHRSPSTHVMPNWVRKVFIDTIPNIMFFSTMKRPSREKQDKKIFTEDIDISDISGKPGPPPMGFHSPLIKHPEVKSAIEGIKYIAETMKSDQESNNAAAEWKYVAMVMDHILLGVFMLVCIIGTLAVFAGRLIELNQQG
T1 sequence (P11230 24-501): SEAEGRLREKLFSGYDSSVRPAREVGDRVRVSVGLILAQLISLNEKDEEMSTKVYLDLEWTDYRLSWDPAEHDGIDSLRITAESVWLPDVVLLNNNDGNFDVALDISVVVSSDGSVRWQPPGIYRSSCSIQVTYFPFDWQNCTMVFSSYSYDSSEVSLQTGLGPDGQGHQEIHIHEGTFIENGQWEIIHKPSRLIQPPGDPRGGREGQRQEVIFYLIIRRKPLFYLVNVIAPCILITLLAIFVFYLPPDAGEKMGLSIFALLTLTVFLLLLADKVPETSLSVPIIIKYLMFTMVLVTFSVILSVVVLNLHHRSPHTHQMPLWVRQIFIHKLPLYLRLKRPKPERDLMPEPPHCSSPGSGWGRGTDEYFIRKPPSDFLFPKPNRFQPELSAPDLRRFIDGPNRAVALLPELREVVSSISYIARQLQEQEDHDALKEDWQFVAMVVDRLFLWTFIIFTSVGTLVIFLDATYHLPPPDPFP
T1 sequence (Q07001 22-517): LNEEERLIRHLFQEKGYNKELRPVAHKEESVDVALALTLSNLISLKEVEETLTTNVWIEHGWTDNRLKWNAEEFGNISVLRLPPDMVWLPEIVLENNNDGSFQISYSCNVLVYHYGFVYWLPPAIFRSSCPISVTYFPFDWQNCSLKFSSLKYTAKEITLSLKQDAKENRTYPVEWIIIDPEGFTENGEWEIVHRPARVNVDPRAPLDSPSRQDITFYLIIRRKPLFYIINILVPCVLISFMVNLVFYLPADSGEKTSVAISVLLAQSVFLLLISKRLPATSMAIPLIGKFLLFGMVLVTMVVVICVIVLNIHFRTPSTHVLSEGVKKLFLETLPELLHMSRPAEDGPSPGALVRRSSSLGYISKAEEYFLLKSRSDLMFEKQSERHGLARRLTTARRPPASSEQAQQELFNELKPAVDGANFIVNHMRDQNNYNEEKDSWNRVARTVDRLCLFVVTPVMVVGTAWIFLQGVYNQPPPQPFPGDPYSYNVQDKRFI
T1 sequence (Q04844 21-493): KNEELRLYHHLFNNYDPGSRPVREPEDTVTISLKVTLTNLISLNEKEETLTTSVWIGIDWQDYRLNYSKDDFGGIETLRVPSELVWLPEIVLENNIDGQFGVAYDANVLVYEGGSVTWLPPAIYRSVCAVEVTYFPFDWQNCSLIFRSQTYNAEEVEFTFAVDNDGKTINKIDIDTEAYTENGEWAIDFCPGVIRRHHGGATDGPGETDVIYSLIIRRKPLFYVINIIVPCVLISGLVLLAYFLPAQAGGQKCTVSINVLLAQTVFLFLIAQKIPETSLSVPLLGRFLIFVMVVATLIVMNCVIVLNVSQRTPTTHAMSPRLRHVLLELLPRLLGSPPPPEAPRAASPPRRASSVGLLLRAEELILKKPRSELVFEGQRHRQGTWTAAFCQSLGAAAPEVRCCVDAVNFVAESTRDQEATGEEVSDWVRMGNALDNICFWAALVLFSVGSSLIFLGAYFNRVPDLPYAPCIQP

As usually defined, the IC50 is the concentration needed to halve the response being measured. For `CCN(CC)CCCC(C)Nc1ccnc2cc(Cl)ccc12` (stereo not shown) [chloroquine], the IC50 in data set [1] was found to be 2.22 µM.

In the case of `C=C[C@H]1C[N@@]2CC[C@H]1C[C@H]2[C@H](O)c1ccnc2ccc(OC)cc12` [quinine sulfate], the “Time of peak plasma concentration after intake” value in data set [2] is “about 2 h”.

With `C=C[C@H]1C[N@@]2CC[C@H]1C[C@H]2[C@H](O)c1ccnc2ccc(OC)cc12` [quinine], the 50% inhibitory concentration (IC50) is around 1 µM in data set [3], around 1 µM in data set [4], around 16 µM in data set [5] and around 1600 µM on human GABA(A)-receptors. In addition, the “Inhibition of the binding of α-bungarotoxin” value in data set [6] was “could not inhibit”.
